The values below are quoted from earlier work in article PMC4168221 (Clinical Drug Investigation, 2014).

Molecules are shown by their SMILES.

Series [1] deals with urinary glucose excretion. The note with it: cited from earlier work.
For series [2] the following is noted: cited from earlier work.

As for `OC[C@H]1O[C@@H](c2ccc(F)c(Cc3cc4ccccc4s3)c2)[C@H](O)[C@@H](O)[C@@H]1O` [Ipragliflozin], the “UGE in each estimated GFR (eGFR) class” value in series [1] is reported as “significantly increased”.
With `CCOc1ccc(Cc2cc([C@@H]3O[C@H](CO)[C@@H](O)[C@H](O)[C@H]3O)ccc2Cl)cc1` [dapagliflozin], the “C max and AUC as a function of renal function” value in series [2] is reported as “increased incrementally with declining renal function”.
Take `OC[C@H]1O[C@@H](c2ccc(Cl)c(Cc3ccc(O[C@H]4CCOC4)cc3)c2)[C@H](O)[C@@H](O)[C@@H]1O` [empagliflozin]: in series [2], the “CLR in patients with moderate renal impairment” value is reported as “decreased” and the “systemic exposure in patients with moderate renal impairment” value is reported as “moderately increased”.
